Converted amounts (≈) assume the structure as drawn.
Experiments:
Experiment in all cases: In vitro antibacterial evaluation: minimum inhibitory concentration (MIC), broth dilution method
Format in all cases: cell-based
Conditions in all cases: 18 hours at 35° C.
[1] = system: Streptococcus sp.
Summary of the method: (§1)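 Using Muller-Hinton II […] and an inoculum of 5×10^5 CFU/mL, antibiotic dilutions from 64 down to 0.06 μg/mL were tested following NCCLS M7-A2. The MIC is the lowest concentration inhibiting growth, including in methicillin-, penicillin- or vancomycin-resistant clinical isolates.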

[2] = system: Escherichia coli
Summary of the method: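 Following NCCLS approved standard M7-A2, compounds are serially diluted from 64 to 0.06 μg/mL in Muller-Hinton II […] and inoculated at 5×10^5 CFU/mL; the MIC is the minimum concentration at which growth is inhibited.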

[3] = system: Staphylococcus sp.
Summary of the method: as §1

[4] = system: Enterococcus sp.
Summary of the method: as §1

[5] = broth dilution, inoculum 5×10^5 CFU/mL

CC(c1ccccc1)C1NC(=O)CNC(=O)C(CO)NC(=O)C(CC2CNC(=N)N2C2OC(CO)C(O)C(O)C2O)NC(=O)C(CC2CNC(=N)N2)NC(=O)C(Cc2ccc(OC3OC(CO)C(OC4OC(COCc5ccc(OCc6ccccc6)cc5)C(O)C(O)C4O)C(O)C3O)cc2)NC1=O (stereo not drawn) [Example 246, Cyclo[3-(2-iminoimidazolidin-4-yl)alanyl-3-(3-hexopyranosyl-2-iminoimidazolidin-4-yl)-alanylserylglycyl-β-methylphenylalanyl-O-[4-O-[6-O-[4-(phenylmethoxy)benzyl]hexopyranosyl]hexopyranosyl]tyrosyl]]
MIC Streptococcus agalactiae (GC 4564) ([1]; Streptococcus agalactiae (GC 4564)): 2 µg/mL (≈ 1.37 µM) | MIC Streptococcus pneumoniae (ATCC 6301) ([1]; Streptococcus pneumoniae (ATCC 6301)): 2 µg/mL (≈ 1.37 µM) | MIC Streptococcus pneumoniae (GC 1894) ([1]; Streptococcus pneumoniae (GC 1894)): 0.5 µg/mL (≈ 0.343 µM) | MIC Streptococcus pneumoniae (GC 4565) ([1]; Streptococcus pneumoniae (GC 4565)): 2 µg/mL (≈ 1.37 µM) | MIC Streptococcus pyogenes (GC 4563) ([1]; Streptococcus pyogenes (GC 4563)): 4 µg/mL (≈ 2.74 µM) | MIC Streptococcus agalactiae (GC 4564) [1, 5]: 2 µg/mL (≈ 1.37 µM) | MIC Streptococcus pneumoniae (ATCC 6301) [1, 5]: 2 µg/mL (≈ 1.37 µM) | MIC Streptococcus pneumoniae (GC 1894) [1, 5]: 0.5 µg/mL (≈ 0.343 µM) | MIC Streptococcus pneumoniae (GC 4565) [1, 5]: 2 µg/mL (≈ 1.37 µM) | MIC Streptococcus pyogenes (GC 4563) [1, 5]: 4 µg/mL (≈ 2.74 µM) | MIC Escherichia coli (GC 4559) ([2]; Escherichia coli (GC 4559)): 64 µg/mL (≈ 43.8 µM) | MIC Escherichia coli (GC 4560) ([2]; Escherichia coli (GC 4560)): 4 µg/mL (≈ 2.74 µM) | MIC Coagulase Negative Staphylococcus (GC 4547) ([3]; Coagulase Negative Staphylococcus (GC 4547)): 4 µg/mL (≈ 2.74 µM) | MIC Coagulase Negative Staphylococcus (GC 4548) ([3]; Coagulase Negative Staphylococcus (GC 4548)): 4 µg/mL (≈ 2.74 µM) | MIC Coagulase Negative Staphylococcus (GC 4549) ([3]; Coagulase Negative Staphylococcus (GC 4549)): 4 µg/mL (≈ 2.74 µM) | MIC Coagulase Negative Staphylococcus (GC 4551) ([3]; Coagulase Negative Staphylococcus (GC 4551)): 8 µg/mL (≈ 5.48 µM) | MIC Coagulase Negative Staphylococcus (GC 6257) ([3]; Coagulase Negative Staphylococcus (GC 6257)): 2 µg/mL (≈ 1.37 µM) | MIC Staphylococcus aureus (ATCC 29213) ([3]; Staphylococcus aureus (ATCC 29213)): 4 µg/mL (≈ 2.74 µM) | MIC Staphylococcus aureus (GC 1131) ([3]; Staphylococcus aureus (GC 1131)): 8 µg/mL (≈ 5.48 µM) | MIC Staphylococcus aureus (GC 3051) ([3]; Staphylococcus aureus (GC 3051)): 4 µg/mL (≈ 2.74 µM) | MIC Staphylococcus aureus (GC 3053) ([3]; Staphylococcus aureus (GC 3053)): 4 µg/mL (≈ 2.74 µM) | MIC Staphylococcus aureus (GC 4541) ([3]; Staphylococcus aureus (GC 4541)): 4 µg/mL (≈ 2.74 µM) | MIC Staphylococcus aureus (GC 4542) ([3]; Staphylococcus aureus (GC 4542)): 4 µg/mL (≈ 2.74 µM) | MIC Staphylococcus aureus (GC 4544) ([3]; Staphylococcus aureus (GC 4544)): 8 µg/mL (≈ 5.48 µM) | MIC Staphylococcus aureus (GC 4545) ([3]; Staphylococcus aureus (GC 4545)): 4 µg/mL (≈ 2.74 µM) | MIC Staphylococcus aureus-SMITH (GC 4543) ([3]; Staphylococcus aureus-SMITH (GC 4543)): 4 µg/mL (≈ 2.74 µM) | MIC Staphylococcus haemolyticus (GC 4546) ([3]; Staphylococcus haemolyticus (GC 4546)): 4 µg/mL (≈ 2.74 µM) | MIC Enterococcus avium (GC 4558) ([4]; Enterococcus avium (GC 4558)): 8 µg/mL (≈ 5.48 µM) | MIC Enterococcus faecalis (ATCC 29212) ([4]; Enterococcus faecalis (ATCC 29212)): 16 µg/mL (≈ 11 µM) | MIC Enterococcus faecalis (GC 2242) ([4]; Enterococcus faecalis (GC 2242)): 16 µg/mL (≈ 11 µM) | MIC Enterococcus faecalis (GC 2691) ([4]; Enterococcus faecalis (GC 2691)): 32 µg/mL (≈ 21.9 µM) | MIC Enterococcus faecalis (GC 3059) ([4]; Enterococcus faecalis (GC 3059)): 32 µg/mL (≈ 21.9 µM) | MIC Enterococcus faecalis (GC 4552) ([4]; Enterococcus faecalis (GC 4552)): 16 µg/mL (≈ 11 µM) | MIC Enterococcus faecalis (GC 4553) ([4]; Enterococcus faecalis (GC 4553)): 8 µg/mL (≈ 5.48 µM) | MIC Enterococcus faecalis (GC 4554) ([4]; Enterococcus faecalis (GC 4554)): 32 µg/mL (≈ 21.9 µM) | MIC Enterococcus faecalis (GC 6189) ([4]; Enterococcus faecalis (GC 6189)): 16 µg/mL (≈ 11 µM) | MIC Enterococcus faecium (GC 2243) ([4]; Enterococcus faecium (GC 2243)): 16 µg/mL (≈ 11 µM) | MIC Enterococcus faecium (GC 4556) ([4]; Enterococcus faecium (GC 4556)): 16 µg/mL (≈ 11 µM) | MIC Enterococcus faecium (GC 4557) ([4]; Enterococcus faecium (GC 4557)): 4 µg/mL (≈ 2.74 µM) | MIC Enterococcus faecalis (GC 2242) [4, 5]: 16 µg/mL (≈ 11 µM) | MIC Enterococcus faecalis (GC 2691) [4, 5]: 32 µg/mL (≈ 21.9 µM) | MIC Enterococcus faecalis (GC 3059) [4, 5]: 32 µg/mL (≈ 21.9 µM)

From patent US8247211B2, “Glycopeptide antibiotics” (American Cyanamid Company, priority 2001, dated 2012)
